# Test results: patent US20080221074A1, “Drug Screen and Treatment Method” (priority 2006, published 2008)
# Tests used:
# [1] = system: carrageenan-λ induced pleurisy; experiment: carrageenan-λ induced lung (pleural cavity) inflammation; assay type: in vivo, CD1 male mice; settings: oral gavage; 1 mg and 0.1 mg (17α-ethynyl triol), 40 mg/kg (17β-amino compound)
# [2] = system: passive collagen-induced arthritis; experiment: passive collagen induced arthritis (anti-type II collagen antibodies); assay type: in vivo, DBA/1 mice; settings: 40 mg/kg/day oral gavage
# From the text: The capacity of formula 1 compounds to affect the course of arthritis in a passive collagen induced arthritis model of arthritis was examined essentially as previously described (E. Simelyte et al., Arthritis & Rheumatism, 52(6):1876-1884, 2005; Z. Han et al. Arthritis & Rheumatism 46(3):818-823, 2002; H. Miyahara et al., Clin. Immunol. Immunopathol., 69(1):69-76 1993). In this protocol, passive collagen-induced arthritis was induced in DBA/1 mice by administering anti-type II collagen antibodies, which induced an immune response against joint tissue in the animals. […] The severity of arthritis was assessed using a semiquantitative clinical scoring system. Groups of 8 animals per group were treated with 17α-ethynylandrost-5-ene-3β,7β,17β-triol at 40 mg/kg/day for 14 days or vehicle for 14 days by oral gavage. The vehicle was 30% cyclodextrin-sulfobutylether in water and the drug solution was vehicle with drug at 20 mg/mL.
# The animals were examined by measuring ankle thickness and arthritis score (4-point/paw) with a higher score indicating a more severe arthritis. The experiment was terminated after about 14 days, and histology and gene expression measurements were performed. […] A semi-quantitative scoring system was used to access synovial inflammation, extraarticular inflammation, erosion and proteogylcan loss. […]
# NF-κB = experiment: kinetic analysis of NF-kB inhibition in vivo after LPS; set-up: species or system mice
# Procedure: Kinetic analysis of NF-kB inhibition in vivo. […] The drug was injected 24 hours before intraperitoneal injection of bacterial LPS (about an LD50/24). The study used two groups of 12 animals, vehicle control or drug administered 24 hours before LPS challenge. Spleens were harvested from 3 animals from both groups just before LPS challenge and at 1.5, 2.0 and 2.5 hours after administration of LPS.
# Maximum NF-κB activation after LPS administration occurred at 1.5 hours in the vehicle controls, which was 4-fold increased over the pre-LPS level of activated NF-κB. The values for the vehicle control and drug treated animals are relative optical density units from ELISA measurement of NF-κB in nuclei from spleen cells.
# osteoprotegerin = osteoprotegerin levels in dexamethasone treated mice; assay type: in vivo; settings: vehicle, dexamethasone and compound at 4 mg/kg/day; p<0.05
# Procedure: Osteoprotegerin levels in mice that were treated with vehicle and dexamethasone at 10 μg/day (positive control group) had 3.3 pMol/L osteoprotegerin, while animals treated with vehicle, dexamethasone and 17α-ethynyl-5-androstene-3β,7β,17β-triol at 4 mg/kg/day had 6.4 pMol/L osteoprotegerin (p<0.05).
# [3] = system: human MG-63 osteosarcoma cell line; experiment: reversal of dexamethasone effects in MG-63 osteoblasts; assay type: cell-based; settings: 30 nM dexamethasone; compound concentration stated with each value (17α-ethynyl triol: 1 nM)
structure (smiles),measurement,setting,value
"C#C[C@]1(O)CC[C@H]2[C@@H]3[C@@H](O)C=C4C[C@@H](O)CC[C@]4(C)[C@H]3CC[C@@]21C [17α-ethynylandrost-5-ene-3β,7β,17β-triol]",anti-inflammation activity compared to vehicle controls,[1],statistically significant anti-inflammation activity
same,maximum clinical score,[2]; day 7,5.1
same,clinical score at day 14,[2]; end of protocol,4.1
same,activated NF-κB in spleen cell nuclei (ELISA),"NF-κB; 0 hours (before LPS), about 40 mg/kg i.p. 24 h before LPS",22 relative optical density units
same,activated NF-κB in spleen cell nuclei (ELISA),NF-κB; 1.5 hours after LPS,2 relative optical density units
same,activated NF-κB in spleen cell nuclei (ELISA),NF-κB; 2.0 hours after LPS,7 relative optical density units
same,activated NF-κB in spleen cell nuclei (ELISA),NF-κB; 2.5 hours after LPS,9 relative optical density units
same,osteoprotegerin,osteoprotegerin,6.4 pmol/L
same,reversal of the decrease in osteoprotegerin synthesis,[3],completely reversed the decrease in osteoprotegerin synthesis
